Source: BindingDB's records for doi:10.1021/jm970211n (University of Michigan, 1997)

Assay: Inhibition of angiotensin I converting enzyme in silico

SMILES	IC50
O=C(S[C@@H]1CCC[C@@H]1C(=O)N1CCC[C@H]1C(=O)O)c1ccccc1	0.0631 µM
O=C(O)CCc1cc(O)c2n(c1=O)[C@H](C(=O)O)CC2	0.0316 µM
O=C(O)Cn1c(=O)n2n(c1=O)C(C(=O)O)C=CC2 (stereo unspecified)	0.00316 µM
CC(NC(=O)C1CCCCC1S)C(=O)N1CCCC1C(=O)O (stereo unspecified)	0.01 µM
CC(NP(=O)(O)O)C(=O)C1CCCC1C(=O)O (stereo unspecified)	0.00501 µM
C[C@H](NC(CCC(=O)Nc1ccc(I)cc1)C(=O)O)C(=O)N1CCC[C@H]1C(=O)O (stereo partly specified)	0.000794 µM
CC1(CS)C(=O)N2CCCC(C(=O)O)N2C1=O (stereo unspecified)	3.16 µM
O=C(O)[C@@H]1CC2(CN1C(=O)CP(=O)(O)CCCCc1ccccc1)SCCS2	0.0126 µM
CC(NP(=O)(O)CCc1ccccc1)C(=O)N1CCCC1C(=O)O (stereo unspecified) [1-hydroxy-1-phenylethyl-phosphinoylamino]-propionyl-pyrrolidine-2-carboxylic acid]	0.0251 µM
O=C(O)[C@@H]1CCCN1C(=O)[C@@H]1CC[C@H]1S	0.158 µM
O=C(O)[C@@H]1C=CCn2c(=O)n(CS)c(=O)n21	2.51 µM
